Like-named read-outs stand apart in the source and are kept apart here.
System: monocistronic NK5.1 HCV replicon in Huh7 cells
Experiment: HCV replicon assay, monocistronic replicon cell line
Assay type: cell-based, hepatitis C virus
Settings: Hepatitis C virus, read-out: Mono EC50 Median
Procedure, shortened: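 Huh7 cells carrying the monocistronic NK5.1 replicon, seeded 24 h before dosing, were exposed to six-point half-log compound series (0.6% DMSO) for 3 days at 37 °C. Replicon RNA was quantified by TaqMan RT-PCR, normalised to GAPDH and compared with DMSO controls to derive EC50.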

[1] = Huh-7, monocistronic NK5.1 HCV replicon in Huh7 cells, median value
[2] = Huh-7, 72 h, table T3 (compounds 471-640), monocistronic replicon in Huh7 cells, 3 days incubation, HCV RNA/GAPDH RNA by TaqMan RT-PCR

SMILES | EC50 [1] | further results
COc1ccc(-c2nc(-c3cccc(C)n3)n[nH]2)c(O)c1 [Compound 401, 5-Methoxy-2-(5-(6-methyl-pyridin-2-yl)-2H-[1,2,4]triazol-3-yl)-phenol] | > 19 µM | –
Cc1cc(-c2ccccc2O)nn1-c1ccccc1[N+](=O)[O-] [Compound 2, 2-[5-Methyl-1-(2-nitro-phenyl)-1H-pyrazol-3-yl]-phenol] | – | EC50 (Huh-7, 72 h, Table 1, monocistronic replicon in Huh7 cells, 3 days incubation, HCV RNA/GAPDH RNA by TaqMan RT-PCR): > 32 µM
CCOc1cccc(-c2nc(-c3cccc(C)n3)n[nH]2)c1O [Compound 396, 6-Ethoxy-2-(5-(6-methyl-pyridin-2-yl)-2H-[1,2,4]triazol-3-yl)-phenol] | > 19 µM | –
Oc1ccc(F)cc1-c1nc(-c2cnccc2C(F)(F)F)n[nH]1 [Compound 413, 4-Fluoro-2-[5-(4-trifluoromethyl-pyridin-3-yl)-2H-[1,2,4]triazol-3-yl]-phenol] | > 19 µM | –
Cc1cccnc1-c1n[nH]c(-c2ccc(C(C)C)cc2)n1 [Compound 460, 2-[5-(4-Isopropyl-phenyl)-1H-[1,2,4]triazol-3-yl]-3-methyl-pyridine] | 3 µM | –
O=[N+]([O-])c1cccc(-c2nc(-c3ncccc3C(F)(F)F)n[nH]2)c1 [Compound 544, 2-[5-(3-Nitro-phenyl)-1H-[1,2,4]triazol-3-yl]-3-trifluoromethyl-pyridine] | – | EC50 [2]: > 19 µM
FC(F)(F)c1ccc(-c2n[nH]c(-c3c(Cl)cccc3Cl)n2)nc1 [Compound 527, 2-[5-(2,6-Dichloro-phenyl)-1H-[1,2,4]triazol-3-yl]-5-trifluoromethyl-pyridine] | – | EC50 [2]: > 19 µM

From patent publication US20050075375A1 (priority 2003, published 2005)
